Measurements published in PMC12527922, “Cocaine chemogenetics blunts drug-seeking by synthetic physiology” (Nature, 2025).
Several values for one entry are separate records, joined by “and”; a condition that tells them apart may be missing. Equal entries are not always repeated.

What was measured:
[1] = target: coca-5HT3 (Homo sapiens, UniProt P36544, G175K/L141G/Y210F/Y217F); experiment: [^3H]ASEM displacement, membranes of HEK293 cells expressing coca-5HT3; format: binding, human α7 nAChR LBD, mouse 5HT3 IPD; conditions: for [3H]ASEM binding, normalised dose-response (DR replicates): HotNM 2.000
Sequence of coca-5HT3 (P23979 242-489): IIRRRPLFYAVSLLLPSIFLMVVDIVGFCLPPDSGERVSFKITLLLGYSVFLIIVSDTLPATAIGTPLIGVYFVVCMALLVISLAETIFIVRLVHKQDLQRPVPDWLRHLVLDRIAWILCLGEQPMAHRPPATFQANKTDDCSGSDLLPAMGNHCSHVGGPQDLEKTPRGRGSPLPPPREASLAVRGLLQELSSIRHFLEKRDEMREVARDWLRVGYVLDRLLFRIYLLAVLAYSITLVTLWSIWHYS
Sequence of coca-5HT3 (P36544 23-224 L141G/G175K/Y210F/Y217F): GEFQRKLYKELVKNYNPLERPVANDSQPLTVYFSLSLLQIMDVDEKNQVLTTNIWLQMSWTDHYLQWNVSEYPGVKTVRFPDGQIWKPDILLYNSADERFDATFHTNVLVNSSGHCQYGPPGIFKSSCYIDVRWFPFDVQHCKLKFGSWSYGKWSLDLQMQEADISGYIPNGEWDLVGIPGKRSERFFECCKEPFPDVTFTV
Experimental: (§1) Cells were suspended in Tris-HCl 50 mM pH 7.4 supplemented with protease inhibitor cocktail (1:100, Sigma-Aldrich). HEK293 cells were disrupted with a 6 Polytron homogenizer (Kinematica). Homogenates were centrifuged at 48,000g (50 min, 4 °C) and washed twice in the same conditions to isolate the membrane fraction. Protein was quantified using the bicinchoninic acid method (Pierce). […] Free and membrane-bound radioligands were separated by rapid filtration of 500 μl aliquots in a 96-well plate harvester (Brandel) and washed with 2 ml of ice-cold Tris-HCl buffer. Microscint-20 scintillation liquid (65 μl per well, PerkinElmer) was added to the filter plates, plates were incubated overnight at room temperature and radioactivity counts were determined in the MicroBeta2 plate counter (PerkinElmer) with an efficiency of 41%. Two-site competition curves were fitted using Prism 10 (GraphPad). Ki values were calculated using the Cheng–Prusoff equation.

[2] = target: T1, coca-GlyR (Homo sapiens, UniProt P23415+P36544, G175K/L141G/Y217F); experiment: [^3H]ASEM displacement, membranes of HEK293 cells expressing coca-GlyR; format: binding
T1 construct: expressed in transfected cells; host or cells: HEK293 (ATCC CRL-1573), pcDNA3.1
T1 sequence (P36544+P23415 fused P36544:L141G/P36544:G175K/P36544:Y217F): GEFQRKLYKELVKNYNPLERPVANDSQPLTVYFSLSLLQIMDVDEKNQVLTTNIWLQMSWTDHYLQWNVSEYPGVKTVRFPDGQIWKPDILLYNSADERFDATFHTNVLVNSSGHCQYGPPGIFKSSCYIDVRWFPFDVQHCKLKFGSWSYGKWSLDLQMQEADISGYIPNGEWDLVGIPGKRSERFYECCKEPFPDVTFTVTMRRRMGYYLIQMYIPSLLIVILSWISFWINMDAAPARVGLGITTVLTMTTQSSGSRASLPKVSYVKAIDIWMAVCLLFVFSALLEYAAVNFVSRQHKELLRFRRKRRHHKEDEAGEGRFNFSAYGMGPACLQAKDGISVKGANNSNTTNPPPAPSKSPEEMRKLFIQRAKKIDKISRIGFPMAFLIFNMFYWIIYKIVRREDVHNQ
Experimental: as §1

[3] = target: T2, unmodified α7–5HT3 (UniProt P23979+P36544); set-up: method as in PMID 30872534; conditions: cited from earlier work
T2 construct: expressed in transfected cells; host or cells: HEK293 (ATCC CRL-1573), pcDNA3.1
T2 sequence (P36544+P23979 fused P36544:T225I/P36544:M226I): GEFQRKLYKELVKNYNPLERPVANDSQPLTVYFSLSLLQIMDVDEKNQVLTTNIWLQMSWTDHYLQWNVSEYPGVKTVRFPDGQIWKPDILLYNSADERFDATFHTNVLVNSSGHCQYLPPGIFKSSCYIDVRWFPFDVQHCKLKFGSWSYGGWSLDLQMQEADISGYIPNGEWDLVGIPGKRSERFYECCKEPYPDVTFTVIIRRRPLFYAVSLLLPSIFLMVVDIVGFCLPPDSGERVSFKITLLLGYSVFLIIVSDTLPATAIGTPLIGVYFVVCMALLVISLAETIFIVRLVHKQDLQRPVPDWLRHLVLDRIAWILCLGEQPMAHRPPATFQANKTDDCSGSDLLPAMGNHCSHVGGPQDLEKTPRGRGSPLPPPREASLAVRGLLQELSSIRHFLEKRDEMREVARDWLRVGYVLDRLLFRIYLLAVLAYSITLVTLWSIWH

[4] = target: T3, unmodified α7–GlyR (Homo sapiens, UniProt P23415+P36544); set-up: method as in PMID 30872534; conditions: cited from earlier work
T3 construct: expressed in transfected cells; host or cells: HEK293 (ATCC CRL-1573), pcDNA3.1
T3 sequence (P36544+P23415 fused): as the sequence (P36544+P23415 fused P36544:L141G/P36544:G175K/P36544:Y217F) above, with G119L, K153G, F195Y counted along it

[5] = test system: α7 nAChR; conditions: cited from earlier work
[6] = Two sites - Fit Ki, best-fit value per replicate
[7] = Two sites - Fit Ki, best-fit value, single experiment

O=S1(=O)c2cc(N3CCN4CCC3CC4)ccc2-c2cccc(F)c21 [ASEM]
binding to coca-5HT3 [1]: biphasic manner | FractionHi MEAN ([1]; Two sites - Fit Ki, MEAN of 3 experiments): 0.4238 | Bottom [1, 6]: -0.2261 and -1.876 and -13.02 | Top [1, 6]: 108.2 and 99.61 and 97.94 | FractionHi ([1]; Two sites - Fit Ki, best-fit value per replicate, fraction of high-affinity sites): 0.4342 and 0.3061 and 0.4229 | FractionHi [1, 7]: 0.4739 and 0.3529 and 0.4445 | Top [1, 7]: 103.6 and 103.2 and 103.8 | FractionHi MEAN ([1]; Two sites - Fit Ki, MEAN of replicates): 0.3877 | [3H]ASEM binding, normalised dose-response (DR replicates) ([1]; competitor log(M) -4): 0 and 2.042 and -2.042 | [3H]ASEM binding remaining, single experiment ([1]; competitor log(M) -5): 21.992 and 15.466 and 20.212 | [3H]ASEM binding, normalised dose-response (DR replicates) ([1]; competitor log(M) -5): 13.773 and 20.58 | [3H]ASEM binding remaining, single experiment ([1]; competitor log(M) -5.5): 26.835 and 27.725 | [3H]ASEM binding, normalised dose-response (DR replicates) ([1]; competitor log(M) -5.5): 32.147 and 34.87 and 51.889 | [3H]ASEM binding remaining, single experiment ([1]; competitor log(M) -6): 38.451 and 39.34 | [3H]ASEM binding, normalised dose-response (DR replicates) ([1]; competitor log(M) -6): 39.688 and 59.43 and 60.791 | [3H]ASEM binding remaining, single experiment ([1]; competitor log(M) -6.5): 45.049 and 48.906 and 53.356 | [3H]ASEM binding, normalised dose-response (DR replicates) ([1]; competitor log(M) -6.5): 51.256 and 70.998 and 34.237 | [3H]ASEM binding remaining, single experiment ([1]; competitor log(M) -7): 68.627 and 77.823 and 60.024 | [3H]ASEM binding, normalised dose-response (DR replicates) ([1]; competitor log(M) -7): 64.248 and 83.99 and 53.356 | [3H]ASEM binding remaining, single experiment ([1]; competitor log(M) -8): 69.758 and 69.462 and 44.246 | [3H]ASEM binding, normalised dose-response (DR replicates) ([1]; competitor log(M) -8): 67.668 and 43.16 | [3H]ASEM binding remaining, single experiment ([1]; competitor log(M) -8.5): 79.055 and 76.385 and 69.859 | [3H]ASEM binding, normalised dose-response (DR replicates) ([1]; competitor log(M) -8.5): 58.761 and 45.827 and 64.888 | [3H]ASEM binding remaining, single experiment ([1]; competitor log(M) -9): 118.645 and 95.803 and 67.325 | [3H]ASEM binding, normalised dose-response (DR replicates) ([1]; competitor log(M) -9): 68.4 and 67.719 | [3H]ASEM binding remaining, single experiment ([1]; competitor log(M) -9.5): 111.297 and 122.273 and 76.589 | [3H]ASEM binding, normalised dose-response (DR replicates) ([1]; competitor log(M) -9.5): 73.805 and 71.082 and 77.209 | [3H]ASEM binding remaining, single experiment ([1]; competitor log(M) -10): 101.728 and 95.202 and 81.556 | [3H]ASEM binding, normalised dose-response (DR replicates) ([1]; competitor log(M) -10): 78.63 and 99.734 and 90.884 | [3H]ASEM binding remaining, single experiment ([1]; competitor log(M) -10.5): 92.261 and 100.567 and 96.414 | [3H]ASEM binding, normalised dose-response (DR replicates) ([1]; competitor log(M) -10.5): 94.278 and 80.663 and 86.79 | [3H]ASEM binding remaining, single experiment ([1]; competitor log(M) -11): 96.153 and 103.569 and 104.162 | [3H]ASEM binding, normalised dose-response (DR replicates) ([1]; competitor log(M) -11): 97.033 and 84.779 and 104.521 | [3H]ASEM binding remaining, single experiment ([1]; competitor log(M) -13): 102.966 and 93.474 and 103.56 | [3H]ASEM binding, normalised dose-response (DR replicates) ([1]; competitor log(M) -13): 111.346 and 109.984 | binding to coca-GlyR [2]: biphasic manner

CN1[C@@H]2CC[C@H]1C[C@@H](OC(=O)c1c[nH]c3ccccc13)C2 [tropisetron]
activity at chimeric channel α7–5HT3 [3]: agonist | activity at chimeric channel α7–GlyR [4]: agonist | activity at α7 nAChR [5]: agonist
